Source: ChEMBL document CHEMBL1135684, “Identification of arodyn, a novel acetylated dynorphin A-(1-11) analogue, as a kappa opioid receptor antagonist” (J Med Chem, 2002)
Where a SMILES comes first, the peptide text is derived from it. [ ]: non-standard residue; d: D form.

What was measured:
[1] = target: Kappa-type opioid receptor (Homo sapiens, UniProt P41145); test: Binding affinity towards Opioid receptor kappa 1 using [3H]diprenorphine as radioligand expressed on chinese hamster ovary (CHO) cells; type: cell-based
[2] = target: Mu-type opioid receptor (Homo sapiens, UniProt P35372); test: Binding affinity towards Opioid receptor mu 1 using [3H]DAMGO as radioligand
[3] = target: Delta-type opioid receptor (Homo sapiens, UniProt P41143); test: Binding affinity towards Opioid receptor delta 1 using [3H]DPDPE as radioligand; parameters: species or system Cricetulus griseus
Delta-type opioid receptor, sequence (P41143 whole entry): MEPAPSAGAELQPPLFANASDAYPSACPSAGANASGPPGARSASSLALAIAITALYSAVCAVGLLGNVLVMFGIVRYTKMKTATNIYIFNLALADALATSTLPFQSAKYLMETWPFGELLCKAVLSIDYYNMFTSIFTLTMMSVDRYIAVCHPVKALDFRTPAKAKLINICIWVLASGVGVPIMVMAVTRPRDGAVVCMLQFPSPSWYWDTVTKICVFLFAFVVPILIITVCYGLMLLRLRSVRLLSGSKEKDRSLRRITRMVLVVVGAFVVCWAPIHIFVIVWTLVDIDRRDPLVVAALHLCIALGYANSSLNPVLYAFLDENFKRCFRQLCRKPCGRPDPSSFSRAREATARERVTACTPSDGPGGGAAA

Mu-type opioid receptor, sequence (P35372 whole entry): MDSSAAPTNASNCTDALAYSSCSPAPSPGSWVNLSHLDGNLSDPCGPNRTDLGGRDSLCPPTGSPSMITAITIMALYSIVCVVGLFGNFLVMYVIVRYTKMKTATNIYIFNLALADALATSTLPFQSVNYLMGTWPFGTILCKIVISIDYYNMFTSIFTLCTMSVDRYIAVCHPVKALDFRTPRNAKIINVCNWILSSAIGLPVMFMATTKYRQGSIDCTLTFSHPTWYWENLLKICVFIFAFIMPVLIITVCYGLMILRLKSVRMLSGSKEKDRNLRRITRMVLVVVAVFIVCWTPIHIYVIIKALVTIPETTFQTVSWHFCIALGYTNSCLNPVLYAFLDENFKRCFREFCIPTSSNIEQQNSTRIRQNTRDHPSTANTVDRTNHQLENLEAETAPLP
Kappa-type opioid receptor, sequence (P41145 whole entry): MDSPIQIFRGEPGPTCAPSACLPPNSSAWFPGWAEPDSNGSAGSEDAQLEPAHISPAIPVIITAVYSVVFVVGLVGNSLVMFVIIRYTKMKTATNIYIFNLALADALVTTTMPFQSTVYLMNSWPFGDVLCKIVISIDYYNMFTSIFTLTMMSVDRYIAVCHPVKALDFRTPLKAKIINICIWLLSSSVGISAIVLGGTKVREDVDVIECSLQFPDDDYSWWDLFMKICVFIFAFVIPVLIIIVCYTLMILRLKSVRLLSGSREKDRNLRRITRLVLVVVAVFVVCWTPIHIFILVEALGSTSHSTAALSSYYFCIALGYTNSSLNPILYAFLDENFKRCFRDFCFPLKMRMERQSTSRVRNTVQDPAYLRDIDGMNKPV

SMILES	Ki [1] [nM]	Ki [2] [nM]	Ki [3] [nM]
CSCC[C@H](NC(=O)[C@H](Cc1ccccc1)NC(=O)[C@H](CCCN=C(N)N)NC(C)=O)C(=O)N[C@@H](Cc1c[nH]c2ccccc12)C(=O)N[C@@H](CCSC)C(=O)N[C@@H](CCCN=C(N)N)C(=O)N[C@@H](CCCN=C(N)N)C(=O)N[C@H](C)C(=O)N[C@@H](CCCN=C(N)N)C(=O)N1CCC[C@H]1C(=O)N[C@@H](CCCCN)C(N)=O [EXTACET]	6.6	1.12	–
CC(=O)N[C@@H](Cc1ccccc1)C(=O)N[C@@H](Cc1ccccc1)C(=O)N[C@@H](Cc1ccccc1)C(=O)N[C@@H](CCCNC(=N)N)C(=O)N[C@@H](CC(C)C)C(=O)N[C@@H](CCCNC(=N)N)C(=O)N[C@@H](CCCNC(=N)N)C(=O)N[C@H](C)C(=O)N[C@@H](CCCNC(=N)N)C(=O)N1CCC[C@H]1C(=O)N[C@@H](CCCCN)C(N)=O (Ac-FFFRLRR[dA]RPK-NH2)	–	–	5830
